Data set [1] can be described thus: Water solubility by quantitative 1H NMR of saturated solution. Type of data set: physicochemical. The settings on record: saturated solution in D2O, heated to 40 °C and sonicated 90 min, cooled to room temperature, quantitative 1HNMR vs Me2SO2. As to the method: (§1) For determining the solubility of investigated compounds, 5 mg of the selected gold(I) complex was suspended in an Eppendorf test tube with 300 μL of D2O and 300 μL of a Me2SO2/D2O solution 6.94 mM (Me2SO2 final conc. 3.47 mM). The suspension was heated to 40 °C and sonicated for 90 min. The resulting saturated solution was left to cool to room temperature, decanted, transferred to an NMR tube and then analyzed through quantitative ^1HNMR spectroscopy (tilt angle = 45°; recycle delay = 4 s; number of scans = 16). The concentration (solubility) was calculated by the relative integral (related to phosphine or phosphite -CH3 groups) with respect to Me2SO2 singlet (δ = 3.14 ppm). LogP values were determined through a modification of the shake-flask method reported in [22]. More precisely, in a 15 mL Falcon tube, roughly 2 mg of the sample was added in 2 mL of n-octanol-saturated water and 2 mL of water-saturated n-octanol. The mixture was hand shaken for ten minutes, and then 0.5 mL of each phase were moved in two different mineralization tubes together with 1 mL of metal-free concentrated nitric acid. The mixtures were heated overnight at 90 °C, then diluted with 4.5 mL of ultrapure water. The gold concentration in each sample was determined through ICP-OES and the respective LogP values were calculated through the ratio between octanol and water gold concentrations.

Data set [2] in a line: LogP, modified shake-flask method with ICP-OES gold determination. Type of data set: physicochemical. The settings on record: n-octanol/water, gold concentration by ICP-OES. The protocol: as §1
Data set [3] relates to A2780 ovarian cancer cells. The experiment in a line: MTT cytotoxicity assay, A2780. The data set is classed as cell-based, human. Conditions: A2780, 72 h of treatment, three independent experiments. The protocol:
(§2) RPMI 1640 cell culture medium, fetal bovine serum (FBS), and phosphate-buffered saline (PBS) were obtained from Euroclone (Milan, Italy). Thiazolyl blue tetrazolium bromide (MTT) was obtained from Merck Life Science (Milan, Italy). The human ovarian cancer cell lines A2780, A2780/CDDP-R (cisplatin-resistant) and SKOV3 were obtained from ATCC. Cell lines were maintained in RPMI-1640 supplemented with 10% fetal calf serum (FCS) and antibiotics (penicillin, 100 U/mL; streptomycin, 100 μg/mL) at 37 °C in a 5% CO2 humidified atmosphere and subcultured twice weekly. Split 1:5 (3–6 × 10^4 cells per mL).
(§3) The cytotoxic effects of auranofin analogues on ovarian cancer cell lines were determined by using the colourimetric MTT (3-(4,5-dimethylthiazol-2-yl)-2,5-diphenyltetrazolium bromide) assay. Viable cells can metabolize MTT into formazan, a blue-coloured compound that is detectable at 595 nm. […] Following precipitation, blue formazan was dissolved in 100 µL of DMSO, and the optical density was read in a microplate reader interfaced with Microplate Manager/PV version 4.0 software (BioRad Laboratories, Hercules, CA, USA). From the absorbance measurements, the half-maximal inhibitory concentration (IC50) value of each compound on ovarian cancer cells was calculated using GraphPad Prism software version 6.0 (Graphpad Holdings, LLC, Boston, MA, USA). […]
(Tetrazolium dyes change colour on reduction, which living cells bring about.)

The test system of data set [4] is cisplatin-resistant A2780 (A2780R) ovarian cancer cells. The experiment in a line: MTT cytotoxicity assay, A2780R. Type of data set: cell-based, human. Conditions: 72 h of treatment, three independent experiments. The protocol:
as §2, §3

Data set [5] has as its system SKOV-3 ovarian cancer cells. The data set can be described thus: MTT cytotoxicity assay, SKOV-3. Type of data set: cell-based, human. The settings on record: SKOV-3, 72 h of treatment, three independent experiments. The protocol:
as §2, §3

In data set [6] the test system is thioredoxin reductase (TrxR). Conditions: A2780 cells, 24 h of treatment at the 72 h exposure IC50 dose. The protocol: The analysis was performed in triplicate.
Experiments were performed in triplicate.

On the set-up of data set [7]: method as in PMID 29057040. Conditions: reported values; cited from earlier work.
Data set [8] relates to thioredoxin reductase (TrxR). More on the design: method as in PMID 32497830. Conditions: auranofin, previously demonstrated; cited from earlier work.

SMILES strings stand for the structures. Read-outs that look alike come from different tables or passages of the source.

In general, LogP refers to a log measure of how a compound divides between an organic and an aqueous phase. The IC50 is the point on the concentration scale where inhibition reaches its midpoint. Lower therefore signals greater potency in that assay. In the case of `CO[PH](OC)(OC)[Au][S]C1OC(COC(C)=O)C(OC(C)=O)C(OC(C)=O)C1OC(C)=O` (stereo not shown) [AuP(OCH3)3SAtg], in data set [1], the Water solubility is on record as 2.76 millimolar. This molecule showed a LogP in data set [2] of −0.7. In addition, the IC50 in data set [3] stood at 1260 ± 220 nM; in data set [4], 2980 ± 230 nM; in data set [5], 2440 ± 320 nM. In addition, the “residual TrxR enzyme activity with respect to controls” value in data set [6] is recorded as “about 55%”.
Turning to `CCP(CC)CC.[Au+].[Cl-]` [Au(PEt3)Cl], the Water solubility in data set [1] is 0.68 millimolar. Also, the LogP in data set [7] is 1.7.
Regarding `CC(=O)OC[C@H]1O[C@@H]([S-])[C@H](OC(C)=O)[C@@H](OC(C)=O)[C@@H]1OC(C)=O.CCP(CC)CC.[Au+]` [auranofin, 1-Thio-β-D-glucopyranosatotriethylphosphine gold-2,3,4,6-tetraacetate], the Water solubility in data set [1] was found to be 0.34 millimolar. Further, in data set [7], the LogP was 1.6. The “inhibition of TrxR activity” value in data set [8] is given as 40–50%.
Turning to `CC[P](CC)(CC)[Au][I]` [Au(PEt3)I], in data set [1], the Water solubility is given as 0.08 millimolar. For the same molecule, in data set [7], the log partition coefficient (LogP) is recorded as 4.6.

The values are drawn from PMC9920260, “Chemical Modification of Auranofin Yields a New Family of Anticancer Drug Candidates: The Gold(I) Phosphite Analogues” (Molecules, 2023).
